Assay results taken from PubChem BioAssay (NCI).
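1) Cells in 96-well plates. 2) Compound, 48 h, 5 concentrations. 3) Linear interpolation between surrounding doses. 4) Unreached endpoint = highest concentration. TGI denotes the concentration required for complete inhibition of growth.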

What was measured:
Test in all cases: NCI-60 cell line screen, 48 h
UACC-257 melanoma = tested on: UACC-257 melanoma
HOP-62 NSCLC = tested on: HOP-62 NSCLC
OVCAR-4 ovarian = tested on: OVCAR-4 ovarian
OVCAR-5 ovarian = tested on: OVCAR-5 ovarian
K-562 leukemia = tested on: K-562 leukemia
LOX IMVI melanoma = tested on: LOX IMVI melanoma
PC-3 prostate = tested on: PC-3 prostate
SK-MEL-28 melanoma = tested on: SK-MEL-28 melanoma
UO-31 renal = tested on: UO-31 renal
786-0 renal = tested on: 786-0 renal
HCT-116 colon = tested on: HCT-116 colon
CCRF-CEM leukemia = tested on: CCRF-CEM leukemia
SF-268 CNS = tested on: SF-268 CNS

For CC(C)N(C(=O)C12C3(C(=O)C(C)(C)C)C4C5(C#N)C3C1(C(=O)C(C)(C)C)C5C42C(=O)C(C)(C)C)C(C)C (stereo not given), the TGI (UACC-257 melanoma) was over 100 µM, the TGI (HOP-62 NSCLC) was over 100 µM and the TGI (OVCAR-4 ovarian) was over 100 µM. For the same molecule, the TGI (OVCAR-5 ovarian) was over 100 µM, the TGI (K-562 leukemia) was over 100 µM and the TGI (LOX IMVI melanoma) was over 100 µM. The TGI (PC-3 prostate) was over 100 µM, the TGI (SK-MEL-28 melanoma) was over 100 µM and the TGI (UO-31 renal) was over 100 µM. For the same molecule, the TGI (786-0 renal) was over 100 µM, the TGI (HCT-116 colon) was over 100 µM and the TGI (CCRF-CEM leukemia) was over 100 µM. It also gave a TGI (SF-268 CNS) of over 100 µM.

Work on COc1cc(OC)c2nc(C)c3c(c2c1)OCC3 yielded a TGI (UACC-257 melanoma) of over 100 µM, a TGI (HOP-62 NSCLC) of over 100 µM and a TGI (OVCAR-4 ovarian) of over 100 µM. The TGI (OVCAR-5 ovarian) was over 100 µM, the TGI (K-562 leukemia) was over 100 µM and the TGI (LOX IMVI melanoma) was over 100 µM. For the same molecule, the TGI (PC-3 prostate) was over 100 µM, the TGI (SK-MEL-28 melanoma) was over 100 µM and the TGI (UO-31 renal) was over 100 µM. For the same molecule, the TGI (786-0 renal) was over 100 µM, the TGI (HCT-116 colon) was over 100 µM and the TGI (CCRF-CEM leukemia) was over 100 µM. It also gave a TGI (SF-268 CNS) of over 100 µM.

With COc1ccc2oc(=O)c(-c3csc(-c4ccccc4)n3)cc2c1 the TGI (UACC-257 melanoma) was over 100 µM, the TGI (HOP-62 NSCLC) was 34.3 µM and the TGI (OVCAR-4 ovarian) was 97.9 µM. For the same molecule, the TGI (OVCAR-5 ovarian) was over 100 µM, the TGI (K-562 leukemia) was over 100 µM and the TGI (LOX IMVI melanoma) was over 100 µM. For the same molecule, the TGI (PC-3 prostate) was over 100 µM, the TGI (SK-MEL-28 melanoma) was over 100 µM and the TGI (UO-31 renal) was 47.1 µM. For the same molecule, the TGI (786-0 renal) was 34.3 µM, the TGI (HCT-116 colon) was over 100 µM and the TGI (CCRF-CEM leukemia) was over 100 µM. It also gave a TGI (SF-268 CNS) of 71.2 µM.

In the case of CNC(=O)OCc1nc(N=[N+]=[N-])n(C)c1COC(=O)NC, the TGI (UACC-257 melanoma) is reported as over 100 µM, the TGI (HOP-62 NSCLC) is reported as over 100 µM and the TGI (OVCAR-4 ovarian) is reported as over 100 µM. The TGI (OVCAR-5 ovarian) was over 100 µM, the TGI (K-562 leukemia) was over 100 µM and the TGI (LOX IMVI melanoma) was over 100 µM. It also gave a TGI (PC-3 prostate) of over 100 µM, a TGI (SK-MEL-28 melanoma) of over 100 µM and a TGI (UO-31 renal) of over 10 µM. The TGI (786-0 renal) was over 10 µM, the TGI (HCT-116 colon) was over 100 µM and the TGI (CCRF-CEM leukemia) was over 100 µM. It also gave a TGI (SF-268 CNS) of over 100 µM.

CN(C)CCN=C1Nc2ccccc2C(=O)N2CSCC12 (stereo not given) gave a TGI (UACC-257 melanoma) of over 100 µM, a TGI (HOP-62 NSCLC) of over 100 µM and a TGI (OVCAR-4 ovarian) of over 100 µM. For the same molecule, the TGI (OVCAR-5 ovarian) was over 100 µM, the TGI (K-562 leukemia) was over 100 µM and the TGI (LOX IMVI melanoma) was over 100 µM. It also gave a TGI (PC-3 prostate) of over 100 µM, a TGI (SK-MEL-28 melanoma) of over 100 µM and a TGI (UO-31 renal) of over 100 µM. The TGI (786-0 renal) was over 100 µM, the TGI (HCT-116 colon) was over 100 µM and the TGI (CCRF-CEM leukemia) was over 100 µM. The TGI (SF-268 CNS) was over 100 µM.

With COCCNC1CCC(=O)c2[nH]c3ccccc3c21 (stereo not given) the TGI (UACC-257 melanoma) was over 100 µM, the TGI (HOP-62 NSCLC) was over 100 µM and the TGI (OVCAR-4 ovarian) was over 100 µM. The TGI (OVCAR-5 ovarian) was over 100 µM, the TGI (K-562 leukemia) was over 100 µM and the TGI (LOX IMVI melanoma) was over 100 µM. The TGI (PC-3 prostate) was over 100 µM, the TGI (SK-MEL-28 melanoma) was over 100 µM and the TGI (UO-31 renal) was over 100 µM. The TGI (786-0 renal) was over 100 µM, the TGI (HCT-116 colon) was over 100 µM and the TGI (CCRF-CEM leukemia) was over 100 µM. For the same molecule, the TGI (SF-268 CNS) was over 100 µM.

Work on Cc1c(-c2ccccc2)c(C#N)c2nnn(C)c(=O)n12 yielded a TGI (UACC-257 melanoma) of over 100 µM, a TGI (HOP-62 NSCLC) of over 100 µM and a TGI (OVCAR-4 ovarian) of over 100 µM. It also gave a TGI (OVCAR-5 ovarian) of over 100 µM, a TGI (K-562 leukemia) of over 100 µM and a TGI (LOX IMVI melanoma) of over 100 µM. For the same molecule, the TGI (PC-3 prostate) was over 100 µM, the TGI (SK-MEL-28 melanoma) was over 100 µM and the TGI (UO-31 renal) was over 100 µM. It also gave a TGI (786-0 renal) of over 100 µM, a TGI (HCT-116 colon) of over 100 µM and a TGI (CCRF-CEM leukemia) of over 100 µM. It also gave a TGI (SF-268 CNS) of over 100 µM.

Molecule Cc1ccc(S(=O)(=O)OI(O)CC(F)(F)F)cc1 has a TGI (UACC-257 melanoma) of over 100 µM, a TGI (HOP-62 NSCLC) of over 100 µM and a TGI (OVCAR-4 ovarian) of over 100 µM. For the same molecule, the TGI (OVCAR-5 ovarian) was over 100 µM, the TGI (K-562 leukemia) was over 100 µM and the TGI (LOX IMVI melanoma) was over 100 µM. For the same molecule, the TGI (PC-3 prostate) was over 100 µM, the TGI (SK-MEL-28 melanoma) was over 100 µM and the TGI (UO-31 renal) was over 100 µM. For the same molecule, the TGI (786-0 renal) was over 100 µM, the TGI (HCT-116 colon) was over 100 µM and the TGI (CCRF-CEM leukemia) was over 100 µM. For the same molecule, the TGI (SF-268 CNS) was over 100 µM.

For N#CCN1CCN(CC#N)CCN(CC#N)CCN(CC#N)CC1, the TGI (UACC-257 melanoma) was over 100 µM, the TGI (HOP-62 NSCLC) was over 100 µM and the TGI (OVCAR-4 ovarian) was over 100 µM. For the same molecule, the TGI (OVCAR-5 ovarian) was over 100 µM, the TGI (K-562 leukemia) was over 100 µM and the TGI (LOX IMVI melanoma) was over 100 µM. For the same molecule, the TGI (PC-3 prostate) was over 100 µM, the TGI (SK-MEL-28 melanoma) was over 100 µM and the TGI (UO-31 renal) was over 100 µM. For the same molecule, the TGI (786-0 renal) was over 100 µM, the TGI (HCT-116 colon) was over 100 µM and the TGI (CCRF-CEM leukemia) was over 100 µM. It also gave a TGI (SF-268 CNS) of over 100 µM.

For CC1(Cc2cc3c(cc2C2(c4ccc([N+](=O)[O-])cc4)OCCO2)OCO3)OCCO1, the TGI (UACC-257 melanoma) was over 100 µM, the TGI (HOP-62 NSCLC) was over 100 µM and the TGI (OVCAR-4 ovarian) was over 100 µM. For the same molecule, the TGI (OVCAR-5 ovarian) was over 100 µM, the TGI (K-562 leukemia) was over 100 µM and the TGI (LOX IMVI melanoma) was over 100 µM. It also gave a TGI (PC-3 prostate) of over 100 µM, a TGI (SK-MEL-28 melanoma) of over 100 µM and a TGI (UO-31 renal) of over 100 µM. The TGI (786-0 renal) was over 100 µM, the TGI (HCT-116 colon) was over 100 µM and the TGI (CCRF-CEM leukemia) was over 100 µM. The TGI (SF-268 CNS) was over 100 µM.

With O=C1CC2(CCNCC2)C(=O)N1N1CCCCC1 the TGI (UACC-257 melanoma) was over 100 µM, the TGI (HOP-62 NSCLC) was over 100 µM and the TGI (OVCAR-4 ovarian) was over 100 µM. The TGI (OVCAR-5 ovarian) was over 100 µM, the TGI (K-562 leukemia) was over 100 µM and the TGI (LOX IMVI melanoma) was over 100 µM. It also gave a TGI (PC-3 prostate) of over 100 µM, a TGI (SK-MEL-28 melanoma) of over 100 µM and a TGI (UO-31 renal) of over 100 µM. For the same molecule, the TGI (786-0 renal) was over 100 µM, the TGI (HCT-116 colon) was over 100 µM and the TGI (CCRF-CEM leukemia) was over 100 µM. The TGI (SF-268 CNS) was over 100 µM.

Work on O=C1O/C(=C(/Cl)c2c3ccccc3cc3ccccc23)c2ccccc21 yielded a TGI (UACC-257 melanoma) of over 100 µM, a TGI (HOP-62 NSCLC) of 57.8 µM and a TGI (OVCAR-4 ovarian) of 90.3 µM. For the same molecule, the TGI (OVCAR-5 ovarian) was over 100 µM, the TGI (K-562 leukemia) was over 100 µM and the TGI (LOX IMVI melanoma) was 8.04 µM. The TGI (PC-3 prostate) was over 100 µM, the TGI (SK-MEL-28 melanoma) was over 100 µM and the TGI (UO-31 renal) was over 100 µM. It also gave a TGI (786-0 renal) of 40.5 µM, a TGI (HCT-116 colon) of 9.58 µM and a TGI (CCRF-CEM leukemia) of 59.1 µM. It also gave a TGI (SF-268 CNS) of over 100 µM.

With CN(C)c1cccc(/C=C(\C#N)c2ccccc2)c1 the TGI (UACC-257 melanoma) was over 71.7 µM, the TGI (HOP-62 NSCLC) was 8.65 µM and the TGI (OVCAR-4 ovarian) was 98 µM. For the same molecule, the TGI (OVCAR-5 ovarian) was 64 µM, the TGI (K-562 leukemia) was over 14.4 µM and the TGI (LOX IMVI melanoma) was over 59.5 µM. For the same molecule, the TGI (PC-3 prostate) was over 100 µM, the TGI (SK-MEL-28 melanoma) was over 100 µM and the TGI (UO-31 renal) was over 100 µM. The TGI (786-0 renal) was over 60.9 µM, the TGI (HCT-116 colon) was 57.5 µM and the TGI (CCRF-CEM leukemia) was over 37.3 µM. It also gave a TGI (SF-268 CNS) of over 100 µM.

With CCN(CC)c1ccc2cc(-c3csc(C)n3)c(=O)oc2c1 the TGI (UACC-257 melanoma) was over 100 µM, the TGI (HOP-62 NSCLC) was 94.6 µM and the TGI (OVCAR-4 ovarian) was over 100 µM. The TGI (OVCAR-5 ovarian) was over 100 µM, the TGI (K-562 leukemia) was over 100 µM and the TGI (LOX IMVI melanoma) was over 100 µM. The TGI (PC-3 prostate) was over 100 µM, the TGI (SK-MEL-28 melanoma) was over 100 µM and the TGI (UO-31 renal) was over 100 µM. For the same molecule, the TGI (786-0 renal) was over 100 µM, the TGI (HCT-116 colon) was over 100 µM and the TGI (CCRF-CEM leukemia) was over 100 µM. For the same molecule, the TGI (SF-268 CNS) was over 100 µM.

CC(C)(C)CN1[C@@H]2CCCC[C@H]2N(CC(C)(C)C)P1(=O)C(O)/C=C/c1ccccc1 (stereo not given in full) was tested, and the TGI (UACC-257 melanoma) was over 100 µM, the TGI (HOP-62 NSCLC) was over 100 µM and the TGI (OVCAR-4 ovarian) was over 100 µM. The TGI (OVCAR-5 ovarian) was over 100 µM, the TGI (K-562 leukemia) was over 100 µM and the TGI (LOX IMVI melanoma) was 37.3 µM. It also gave a TGI (PC-3 prostate) of over 100 µM, a TGI (SK-MEL-28 melanoma) of over 100 µM and a TGI (UO-31 renal) of over 100 µM. The TGI (786-0 renal) was over 100 µM, the TGI (HCT-116 colon) was over 100 µM and the TGI (CCRF-CEM leukemia) was over 100 µM. The TGI (SF-268 CNS) was over 100 µM.
